What was measured:
[1] = 1H NMR titration with TBA nitrate in 10% DMSO-d6/CDCl3; type: binding; conditions: 10% DMSO-d6/CDCl3, from Ka values
Description: (§1) To simplify the mode of binding in these receptors, as well as to lower the association constant of nitrate and bromide to a measurable amount, other solvent systems were investigated. Low solubility of the tripodal receptors limited the solvent possibilities. We also aimed to maintain competition between binding of the anion and solvent molecules to provide further evidence for the strong binding of nitrate in competitive solvents, a critical feature for applications in environmental monitoring. […] In addition, DMSO is a strong hydrogen bond acceptor, thus a lower association constant would be expected. Initial upfield shifts, followed by downfield shifts of the urea protons were observed upon the addition of TBANO3 1 mM solutions of 1 in 2% DMSO-d6/CDCl3 and 5% DMSO-d6/CDCl3. […]
(§2) Titrations in 10% DMSO-d6/CDCl3 were performed at a constant 1 mM concentration of 1. The change in chemical shift was monitored throughout the titration and fit to a 1:1 model using linear regression analysis. […] The binding constants of each anion investigated and the calculated total Δδ values based on the determined constant are presented in Table 2. […]
Similar to 1, host:guest complexes of 2 were investigated through 1H NMR spectroscopy titrations in 10% DMSO-d6/CDCl3. […] The urea protons (H^a and H^b), nitrophenyl protons (H^c and H^d), and core proton (H^core) were monitored throughout the titrations. […]

[2] = 1H NMR titration with TBA bromide in 10% DMSO-d6/CDCl3; type: binding; conditions: Br^− (TBA salt), 10% DMSO-d6/CDCl3, 1 mM receptor, 1:1 model
Description: as §1, with “DMSO-d6/CDCl3. The titration curves indicate a more complicated system than a 1:1 model; however, the data still could not be fit to a standard model.” for “DMSO-d6/CDCl3.”
as §2

[3] = 1H NMR titration with TBA iodide in 10% DMSO-d6/CDCl3; type: binding; conditions: I^− (TBA salt), 10% DMSO-d6/CDCl3, 1 mM receptor, 1:1 model
Description: as §1, with “DMSO-d6/CDCl3. The titration curves indicate a more complicated system than a 1:1 model; however, the data still could not be fit to a standard model.” for “DMSO-d6/CDCl3.”
as §2

[4] = 1H NMR titration with TBA bromide in acetone-d6; conditions: Br^−, acetone-d6, 0.5 mM receptor; lower limit inferred from sharp binding curve, no reproducible fit
Description: (§3) Interaction of 1 with anions in solution was investigated by 1H NMR spectroscopy. Initial titration experiments were performed at 0.5 mM of 1 in acetone-d6 due to its limited solubility in other solvents, despite the potential solvent competition as a hydrogen bond acceptor. […] Changes in chemical shifts of H^c and H^d were also observed, but to a lesser extent, with H^d moving upfield. Large downfield shifts of the urea protons indicate hydrogen bonds of the ureas to the anion as the main mode of binding. Change in chemical shift corresponding to the addition of NO3^− or Br^− begins to maximize at approximately 0.5 equiv. of guest, indicating a possible 2:1 binding model in acetone.

[5] = 1H NMR titration with TBA chloride in acetone-d6; type: binding; conditions: Cl^− (TBA salt), acetone-d6, 0.5 mM receptor
Description: as §3

## CC(C)(C)c1ccc(NC(=O)Nc2ccc([N+](=O)[O-])cc2)c(C#Cc2c(F)c(C#Cc3cc(C(C)(C)C)ccc3NC(=O)Nc3ccc([N+](=O)[O-])cc3)c(F)c(C#Cc3cc(C(C)(C)C)ccc3NC(=O)Nc3ccc([N+](=O)[O-])cc3)c2F)c1 [compound 1]
[1]
  selectivity for nitrate over chloride: moderate selectivity for nitrate
[2]
  Association constant Ka: 8320 (876) M^−1
[3]
  Association constant Ka: 755 (85) M^−1
[4]
  Ka: > 104 M⁻¹
[5]
  1:1 binding constant: 8620 ± 1170 M⁻¹

## CC(C)(C)c1ccc(NC(=O)Nc2ccc([N+](=O)[O-])cc2)c(C#Cc2cc(C#Cc3cc(C(C)(C)C)ccc3NC(=O)Nc3ccc([N+](=O)[O-])cc3)cc(C#Cc3cc(C(C)(C)C)ccc3NC(=O)Nc3ccc([N+](=O)[O-])cc3)c2)c1 [compound 2]
[1]
  selectivity for nitrate over chloride: loss in selectivity for NO3^− over Cl^−
